Patent publication US10829520B2, “Beta-hairpin peptidomimetics” (POLYPHOR AG, priority 2015, dated 2020)
Where a SMILES comes first, the peptide text is derived from it. Bridges are numbered along the chain shown (N, C = ends). [ ]: non-standard residue; d: D form. Tle = CC(C)(C)[C@H](N)C(=O)O; dDab = NCC[C@@H](N)C(=O)O; Nle = CCCC[C@H](N)C(=O)O; Orn = NCCC[C@H](N)C(=O)O; Dab = NCC[C@H](N)C(=O)O; Dap = NC[C@H](N)C(=O)O; Aib = CC(C)(N)C(=O)O

Tests used:
Format in all cases: cell-based
[1] = system: human red blood cells (hRBC); test: Hemolysis of human red blood cells; conditions: red cells of human, 1 h, 100 μg/mL
Outline: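 Hemolysis was read as supernatant absorbance at 540 nm and expressed as a percentage of Triton X-100 (2.5%) lysis. Washed human red cells (20% v/v) had been exposed to each peptide at 100 μg/mL for 1 h at 37° C.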

[2] = system: Escherichia coli ATCC 25922; conditions: ATCC 25922
Outline: (§1)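 Read-out is the minimal inhibitory concentration in μg/mL, taken as the lowest peptide level without visible growth after 18-20 h at 35° C. Testing followed CLSI broth microdilution in cation-adjusted Mueller-Hinton II broth plus 0.002% Polysorbate 80, with roughly 10^6 CFU/mL.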

[3] = system: Klebsiella pneumoniae SSI #3010; conditions: SSI #3010
Outline: as §1

[4] = system: Pseudomonas aeruginosa ATCC 27853; conditions: ATCC 27853
Outline: as §1

[5] = system: Klebsiella pneumoniae 968733; conditions: 968733
[6] = system: Acinetobacter baumannii 872842; conditions: 872842
Escherichia coli 926415 = conditions: 926415
[7] = system: Acinetobacter baumannii DSM 30008; conditions: DSM 30008
Outline: as §1

Structure (SMILES)	Hemolysis at 100 μg/mL [1] [%]	Escherichia coli ATCC 25922 MIC [2] [µg/mL]	Klebsiella pneumoniae SSI #3010 MIC [3] [µg/mL]	Pseudomonas aeruginosa ATCC 27853 MIC [4] [µg/mL]	Klebsiella pneumoniae 968733 MIC [5] [µg/mL]	Acinetobacter baumannii 872842 MIC [6] [µg/mL]	Escherichia coli 926415 MIC (Escherichia coli 926415) [µg/mL]	Acinetobacter baumannii DSM 30008 MIC [7] [µg/mL]
CCCC[C@@H]1NC(=O)[C@@H]2CCCN2C(=O)[C@H]2CCCN2C(=O)[C@H](CO)NC(=O)[C@H](C)NC(=O)[C@H](C(C)(C)C)NC(=O)[C@@H](NC(=O)[C@H](Cc2c[nH]c3ccccc23)NC(=O)[C@@H](N)[C@@H](C)O)CSSC[C@@H](C(=O)N[C@@H](CCN)C(=O)N[C@H](C(=O)N[C@@H](CCN)C(=O)N[C@H]2CCNC(=O)[C@H]([C@@H](C)O)NC(=O)[C@H](CCN)NC(=O)[C@H](CCN)NC(=O)[C@H](CC(C)C)NC(=O)[C@@H](Cc3ccccc3)NC(=O)[C@H](CCN)NC2=O)[C@@H](C)O)NC(=O)[C@H](Cc2ccc(O)cc2)NC(=O)[C@H](CO)NC1=O [Ex. 43] (H-TWC[Tle]AS[dP]P[Nle]SYC[Dab]T[Dab][Dab][Dab][dF]L[Dab][Dab]T; disulfide 3-12; lactam 16-C)	1	0.125	0.25	0.5	0.5	1.5	1.5	0.5
CCCC[C@@H]1NC(=O)[C@@H]2CCCN2C(=O)[C@H]2CCCN2C(=O)[C@H](CO)NC(=O)[C@H](C)NC(=O)[C@H](C(C)(C)C)NC(=O)[C@@H](NC(=O)[C@H](Cc2c[nH]c3ccccc23)NC(=O)C(C)(C)N)CSSC[C@@H](C(=O)N[C@@H](CCN)C(=O)N[C@H](C(=O)N[C@@H](CCN)C(=O)N[C@H]2CCNC(=O)[C@H]([C@@H](C)O)NC(=O)[C@H](CCN)NC(=O)[C@H](CCN)NC(=O)[C@H](CC(C)C)NC(=O)[C@@H](Cc3ccccc3)NC(=O)[C@H](CCN)NC2=O)[C@@H](C)O)NC(=O)[C@H](Cc2ccc(O)cc2)NC(=O)[C@H](CO)NC1=O [Ex. 44] (H-[Aib]WC[Tle]AS[dP]P[Nle]SYC[Dab]T[Dab][Dab][Dab][dF]L[Dab][Dab]T; disulfide 3-12; lactam 16-C)	<1	0.125	0.25	0.25	2	0.5	0.25	0.125
CCCC[C@@H]1NC(=O)[C@@H]2CCCN2C(=O)[C@H]2CCCN2C(=O)[C@H](CO)NC(=O)[C@H](C)NC(=O)[C@H](C(C)(C)C)NC(=O)[C@@H](NC(=O)[C@@H](N)Cc2c[nH]c3ccccc23)CSSC[C@@H](C(=O)N[C@@H](CCCN)C(=O)N[C@@H](CCN)C(=O)N[C@H]2CCNC(=O)[C@H]([C@@H](C)O)NC(=O)[C@H](CCN)NC(=O)[C@H](CCN)NC(=O)[C@H](CC(C)C)NC(=O)[C@@H](Cc3ccccc3)NC(=O)[C@H](CCN)NC2=O)NC(=O)[C@H](Cc2ccc(O)cc2)NC(=O)[C@H](CO)NC1=O [Ex. 45] (H-WC[Tle]AS[dP]P[Nle]SYC[Orn][Dab][Dab][Dab][dF]L[Dab][Dab]T; disulfide 2-11; lactam 14-C)	1	0.125	0.125	0.5	0.25	0.25	0.25	0.125
CCCC[C@@H]1NC(=O)[C@@H]2CCCN2C(=O)[C@H]2CCCN2C(=O)[C@H](CO)NC(=O)[C@H](C)NC(=O)[C@H](C(C)(C)C)NC(=O)[C@@H](NC(=O)[C@H](Cc2c[nH]c3ccccc23)NC(C)=O)CSSC[C@@H](C(=O)N[C@@H](CCCN)C(=O)N[C@@H](CCN)C(=O)N[C@H]2CCNC(=O)[C@H]([C@@H](C)O)NC(=O)[C@H](CCN)NC(=O)[C@H](CCN)NC(=O)[C@H](CC(C)C)NC(=O)[C@@H](Cc3ccccc3)NC(=O)[C@H](CCN)NC2=O)NC(=O)[C@H](Cc2ccc(O)cc2)NC(=O)[C@H](CN)NC1=O [Ex. 46] (Ac-WC[Tle]AS[dP]P[Nle][Dap]YC[Orn][Dab][Dab][Dab][dF]L[Dab][Dab]T; disulfide 2-11; lactam 14-C)	<1	0.125	0.25	2	2	0.5	0.5	0.25
CCCC[C@@H]1NC(=O)[C@@H]2CCCN2C(=O)[C@H]2CCCN2C(=O)[C@H](CO)NC(=O)[C@H]([C@@H](C)O)NC(=O)[C@H](C(C)(C)C)NC(=O)[C@@H](NC(=O)[C@H](Cc2c[nH]c3ccccc23)NC(C)=O)CSSC[C@@H](C(=O)N[C@@H](CCCN)C(=O)N[C@@H](CCN)C(=O)N[C@H]2CCNC(=O)[C@H]([C@@H](C)O)NC(=O)[C@H](CCN)NC(=O)[C@H](CCN)NC(=O)[C@H](CC(C)C)NC(=O)[C@@H](Cc3ccccc3)NC(=O)[C@H](CCN)NC2=O)NC(=O)[C@H](Cc2ccc(O)cc2)NC(=O)[C@H](CO)NC1=O [Ex. 47] (Ac-WC[Tle]TS[dP]P[Nle]SYC[Orn][Dab][Dab][Dab][dF]L[Dab][Dab]T; disulfide 2-11; lactam 14-C)	1	0.25	0.5	0.5	1	0.5	0.5	0.25
CCCC[C@@H]1NC(=O)[C@@H]2CCCN2C(=O)[C@H]2CCCN2C(=O)[C@H](CO)NC(=O)[C@H](C)NC(=O)[C@H](C(C)(C)C)NC(=O)[C@@H](NC(=O)[C@H](Cc2c[nH]c3ccccc23)NC(C)=O)CSSC[C@@H](C(=O)N[C@@H](CCCN)C(=O)N[C@@H](CCN)C(=O)N[C@H]2CCNC(=O)[C@H]([C@@H](C)O)NC(=O)[C@H](CCN)NC(=O)[C@H](CCN)NC(=O)[C@H](CC(C)C)NC(=O)[C@@H](Cc3ccccc3)NC(=O)[C@H](CCN)NC2=O)NC(=O)[C@H](Cc2ccc(O)cc2)NC(=O)[C@H](CO)NC1=O [Ex. 48] (Ac-WC[Tle]AS[dP]P[Nle]SYC[Orn][Dab][Dab][Dab][dF]L[Dab][Dab]T; disulfide 2-11; lactam 14-C)	2	0.125	0.25	1	1	0.5	0.25	0.5
CCCC[C@@H]1NC(=O)[C@@H]2CCCN2C(=O)[C@H]2CCCN2C(=O)[C@H](CO)NC(=O)[C@H](C)NC(=O)[C@H](C(C)(C)C)NC(=O)[C@@H](NC(=O)[C@H](Cc2c[nH]c3ccccc23)NC(C)=O)CSSC[C@@H](C(=O)N[C@@H](CCCN)C(=O)N[C@H](CCN)C(=O)N[C@H]2CCNC(=O)[C@H]([C@@H](C)O)NC(=O)[C@H](CCN)NC(=O)[C@H](CCN)NC(=O)[C@H](CC(C)C)NC(=O)[C@@H](Cc3ccccc3)NC(=O)[C@H](CCN)NC2=O)NC(=O)[C@H](Cc2ccc(O)cc2)NC(=O)[C@H](CO)NC1=O [Ex. 49] (Ac-WC[Tle]AS[dP]P[Nle]SYC[Orn][dDab][Dab][Dab][dF]L[Dab][Dab]T; disulfide 2-11; lactam 14-C)	<1	0.25	0.5	1	1	1	0.5	0.25
